Publication PMC11984392, “EphA2-targeted alpha-particle theranostics for enhancing PDAC treatment” (Theranostics, 2025)
Like-named read-outs stand apart in the source and are kept apart here. *1 amine or outer side, *2 acyl side, *3 side chain or, on linkers, in order; H or OH if unused. Where a SMILES comes first, the peptide text is derived from it. Bridges are numbered along the chain shown (N, C = ends). [ ]: non-standard residue; d: D form. The star is where a group is joined. TATA = O=C(CC[*:1])N1CN(C(=O)CC[*:2])CN(C(=O)CC[*:3])C1; NOTA = O=C(O)CN1CCN(CC(=O)O)CCN(CC(=O)*)CC1; Hyp = O=C(O)[C@@H]1C[C@@H](O)CN1; hArg = N=C(N)NCCCC[C@H](N)C(=O)O; PEG2 = NCCOCCOCCC(=O)O; Sar = CNCC(=O)O

Test: Ex vivo biodistribution
Design: species or system NSG mice
Conditions: both sexes, NSG, mouse, in vivo, total radioactivity, mean ± SEM (n = 4 or 5); for tissue uptake at 2 h / tissue to tissue ratio at 2 h: 120 min p.i.; for tissue to tissue ratio at 2 h: dimensionless; for tissue uptake at 5 min: 5 min p.i.; for tissue uptake at 0.5 h: 30 min p.i.; for tissue uptake at 1.5 h: 90 min p.i.
Method: Animal studies were performed under Johns Hopkins University Animal Care and Use Committee (ACUC)-approved protocol (Principal investigator: Sridhar Nimmagadda, Ph.D. and Protocol number M021M175). Male and Female NSG mice (5-6 weeks old) were purchased from JHU immunocompromised core and used to establish xenografts by administering cells subcutaneously (top right flank, unless otherwise noted) to form various tumor models within 3-4 weeks. Following cell numbers were used: Panc1, AsPC1, BxPC3 (1 M), Hs766T and SU8686 (2 M), CFPAC and Panc1005 (5 M). Imaging or biodistribution studies (n = 3-5) were conducted on mice with tumor volumes of 100-200 mm^3. The Panc1 orthotopic tumor model was established by surgically implanting a 3-5 mm^3 section of Panc1 tumor xenograft directly onto the pancreas. The implanted tumors were allowed to grow and were ready for imaging after 10 days of implantation.
Mice with 100-200 mm^3 tumor volume were used for ex vivo biodistribution studies. For radiotracer pharmacokinetics and dosimetry studies, mice with Panc1 tumor xenograft received ~80 µCi (2.96 MBq) [^68Ga]AJ201 and were sacrificed at pre-determined time points (5, 30, 60, 90 and 120 min). All other mice were injected with ~50 µCi (1.85 MBq; 0.2 to 0.5 nmol) Ga-68 labeled radiotracer and were sacrificed at 60 min. The selected tissues were collected, weighed, counted, and their %ID/g values calculated for biodistribution analysis. For pharmacokinetics and dosimetry studies, selected tissues included blood, muscle, tumor, thymus, heart, lung, liver, pancreas, stomach, small intestine, large intestine, spleen, adrenals, kidney, bladder, femur, brain and tumor xenografts. For other studies, selected tissues were blood, muscle, tumor, heart, lung, liver, pancreas, small intestine, spleen, kidney.

[1] = iv, i.v., read-out: Adrenals uptake
[2] = iv, i.v., read-out: Bladder uptake
[3] = iv, i.v., read-out: Femur uptake
[4] = iv, i.v., read-out: Kidney uptake
[5] = iv, i.v., read-out: Large Intestine uptake
[6] = iv, i.v., read-out: Small intestine uptake
[7] = iv, i.v., read-out: Spleen uptake

CC(C)C[C@@H]1NC(=O)[C@@H]2CSCCC(=O)N3CN(CN(C3)C(=O)CCSC[C@H](NC(=O)[C@H](CC(=O)O)NC(=O)[C@H](CCCCNC(=N)N)NC(=O)[C@H](C)NC(=O)CNC(=O)CN(C)C(=O)CN(C)C(=O)CN(C)C(=O)[C@H](CCCNC(=N)N)NC(=O)CNC(=O)CCOCCOCCNC(=O)CN3CCN(CC(=O)O)CCN(CC(=O)O)CC3)C(=O)N3C[C@H](O)C[C@H]3C(=O)N[C@@H](CC(C)C)C(=O)N[C@@H](C(C)C)C(=O)N[C@@H](CC(N)=O)C(=O)N3CCC[C@H]3C(=O)N[C@@H](CC(C)C)C(=O)N2)C(=O)CCSC[C@@H](C(N)=O)NC(=O)[C@H](CCCCNC(=N)N)NC(=O)[C@H](Cc2c[nH]c3ccccc23)NC(=O)[C@@H](CC(=O)O)NC(=O)[C@@H]2CCCN2C(=O)[C@H](Cc2c[nH]cn2)NC1=O [[^68Ga]AJ201, metal not drawn] ({NOTA-PEG2}-GR[Sar][Sar][Sar]GA[hArg]DC[Hyp]LVNPLCLHP[dD]W[hArg]C-NH2; linker 10-17-24 via TATA)
tissue uptake at 2 h (iv, 80 uCi, i.v., read-out: Pancreas uptake): 0.36 ± 0.07 %ID/g | tissue uptake at 2 h (iv, 80 uCi, i.v., read-out: Thymus uptake): 1.21 ± 0.52 %ID/g | tissue uptake at 2 h (iv, 80 uCi, i.v., read-out: Tumor uptake): 6.46 ± 0.39 %ID/g | tissue to tissue ratio at 2 h (iv, 80 uCi, read-out: Tumor/Muscle ratio): 24.9 ± 1.93 | tissue to tissue ratio at 2 h (iv, 80 uCi, read-out: Tumor/Pancreas ratio): 18.7 ± 2.39 | tissue to tissue ratio at 2 h (iv, 80 uCi, read-out: Tumor/blood ratio): 8.36 ± 1.85 | tissue uptake at 5 min [1]: 4.91 ± 1.83 %ID/g | tissue uptake at 5 min [2]: 28.1 ± 12.1 %ID/g | tissue uptake at 5 min [3]: 2.77 ± 0.13 %ID/g | tissue uptake at 5 min [4]: 37.5 ± 5.93 %ID/g | tissue uptake at 5 min [5]: 3.67 ± 0.66 %ID/g | tissue uptake at 5 min [6]: 3.25 ± 0.3 %ID/g | tissue uptake at 5 min [7]: 7.95 ± 1.66 %ID/g | tissue uptake at 0.5 h [1]: 2.44 ± 0.46 %ID/g | tissue uptake at 0.5 h [2]: 53.8 ± 30.8 %ID/g | tissue uptake at 0.5 h [3]: 1.36 ± 0.37 %ID/g | tissue uptake at 0.5 h [4]: 56.9 ± 1.26 %ID/g | tissue uptake at 0.5 h [5]: 1.95 ± 0.98 %ID/g | tissue uptake at 0.5 h [6]: 1.16 ± 0.18 %ID/g | tissue uptake at 0.5 h [7]: 3.87 ± 1.1 %ID/g | tissue uptake at 1 h (iv, 60 min p.i., i.v., read-out: Bladder uptake): 48.6 ± 15.5 %ID/g | tissue uptake at 1 h (iv, 60 min p.i., i.v., read-out: Femur uptake): 0.28 ± 0.06 %ID/g | tissue uptake at 1 h (iv, 60 min p.i., i.v., read-out: Kidney uptake): 45.5 ± 2.9 %ID/g | tissue uptake at 1 h (iv, 60 min p.i., i.v., read-out: Large Intestine uptake): 0.15 ± 0.01 %ID/g | tissue uptake at 1 h (iv, 60 min p.i., i.v., read-out: Small intestine uptake): 0.49 ± 0.07 %ID/g | tissue uptake at 1 h (iv, 60 min p.i., i.v., read-out: Spleen uptake): 0.74 ± 0.17 %ID/g | tissue uptake at 1.5 h [1]: 1.85 ± 0.46 %ID/g | tissue uptake at 1.5 h [2]: 18.3 ± 6.35 %ID/g | tissue uptake at 1.5 h [4]: 61.8 ± 11.5 %ID/g | tissue uptake at 1.5 h [5]: 1.46 ± 0.35 %ID/g | tissue uptake at 1.5 h [6]: 0.6 ± 0.15 %ID/g | tissue uptake at 1.5 h [7]: 1.81 ± 0.78 %ID/g | tissue uptake at 2 h [1]: 2.69 ± 0.27 %ID/g | tissue uptake at 2 h [2]: 19 ± 8.08 %ID/g | tissue uptake at 2 h [4]: 52 ± 7.46 %ID/g | tissue uptake at 2 h [5]: 1.02 ± 0.3 %ID/g | tissue uptake at 2 h [6]: 0.45 ± 0.24 %ID/g | tissue uptake at 2 h [7]: 1.55 ± 0.47 %ID/g | tissue uptake at 2 h (iv, i.v., read-out: Stomach with contents uptake): 0.3 ± 0.01 %ID/g | tissue uptake at 1 h (60 min p.i. with blocking (non-radioactive AJ201 pre-administered), read-out: Adrenals uptake): 2.36 ± 1.09 %ID/g | tissue uptake at 1 h (60 min p.i. with blocking (non-radioactive AJ201 pre-administered), read-out: Bladder uptake): 14.4 ± 13.2 %ID/g | tissue uptake at 1 h (60 min p.i. with blocking (non-radioactive AJ201 pre-administered), read-out: Blood uptake): 0.65 ± 0.11 %ID/g | tissue uptake at 1 h (60 min p.i. with blocking (non-radioactive AJ201 pre-administered), read-out: Brain uptake): 0.04 ± 0.001 %ID/g | tissue uptake at 1 h (60 min p.i. with blocking (non-radioactive AJ201 pre-administered), read-out: Femur uptake): 0.38 ± 0.05 %ID/g | tissue uptake at 1 h (60 min p.i. with blocking (non-radioactive AJ201 pre-administered), read-out: Heart uptake): 0.31 ± 0.05 %ID/g | tissue uptake at 1 h (60 min p.i. with blocking (non-radioactive AJ201 pre-administered), read-out: Kidney uptake): 71.3 ± 14.2 %ID/g | tissue uptake at 1 h (60 min p.i. with blocking (non-radioactive AJ201 pre-administered), read-out: Large Intestine uptake): 0.93 ± 0.4 %ID/g | tissue uptake at 1 h (60 min p.i. with blocking (non-radioactive AJ201 pre-administered), read-out: Liver uptake): 0.48 ± 0.07 %ID/g | tissue uptake at 1 h (60 min p.i. with blocking (non-radioactive AJ201 pre-administered), read-out: Lung uptake): 0.8 ± 0.14 %ID/g | tissue uptake at 1 h (60 min p.i. with blocking (non-radioactive AJ201 pre-administered), read-out: Muscle uptake): 0.26 ± 0.03 %ID/g | tissue uptake at 1 h (60 min p.i. with blocking (non-radioactive AJ201 pre-administered), read-out: Pancreas uptake): 0.3 ± 0.03 %ID/g | tissue uptake at 1 h (60 min p.i. with blocking (non-radioactive AJ201 pre-administered), read-out: Small intestine uptake): 0.51 ± 0.08 %ID/g | tissue uptake at 1 h (60 min p.i. with blocking (non-radioactive AJ201 pre-administered), read-out: Spleen uptake): 0.7 ± 0.11 %ID/g | tissue uptake at 1 h (60 min p.i. with blocking (non-radioactive AJ201 pre-administered), read-out: Stomach with contents uptake): 0.19 ± 0.06 %ID/g | tissue uptake at 1 h (60 min p.i. with blocking (non-radioactive AJ201 pre-administered), read-out: Thymus uptake): 2.28 ± 0.53 %ID/g | tissue uptake at 1 h (60 min p.i. with blocking (non-radioactive AJ201 pre-administered), read-out: Tumor uptake): 1.08 ± 0.24 %ID/g | tissue to tissue ratio at 1 h (60 min p.i. with blocking (non-radioactive AJ201 pre-administered), read-out: Tumor/Muscle ratio): 4.4 ± 1.19 | tissue to tissue ratio at 1 h (60 min p.i. with blocking (non-radioactive AJ201 pre-administered), read-out: Tumor/Pancreas ratio): 3.5 ± 0.7 | tissue to tissue ratio at 1 h (60 min p.i. with blocking (non-radioactive AJ201 pre-administered), read-out: Tumor/blood ratio): 1.66 ± 0.37
